Values after ≈ are worked out from the molar mass of the structure shown. Where two headings read alike, the source gives them in different places.

The text below walks through data of article PMC3734177, “Design, Synthesis, Evaluation and Thermodynamics of 1-Substituted Pyridylimidazo[1,5-a]Pyridine Derivatives as Cysteine Protease Inhibitors” (PLoS ONE, 2013).

Common to all, as to assay type: cell-based
The test system of test [1] is Bacillus spp. (ATCC-14593). The test can be described thus: MIC, micro dilution method. As to conditions: ATCC14593; Bacillus sp. The method, then:
(§1) The disk diffusion method was used for the preliminary antibacterial evaluation of 1-pyridylimidazo[1,5-a]pyridine derivatives. The MIC50 of these derivatives, showing inhibition in the preliminary tests, were further determined by the microtitre plate technique using micro dilution method. In brief, the bacterial strains (S. aureus, P. vulgaris, Group D Streptococci, Bacillus sp., E. coli, P. aeruginosa and S. morganii)) were grown and diluted to 2×10^5 colony-forming units (CFU)/ml in sodium phosphate buffer (SPB) containing 0.03% Luria–Bertani (LB) broth. The synthesized derivatives were dissolved in DMSO and their serial dilution was performed in 50 µL of LB medium in 96-well microtitre plate to achieve the required concentrations (0.1–10 µg/ml) with bacterial inoculums (5×10^4 CFU per well). DMSO was taken as negative control and Ceftriaxone and clotrimazole were taken as positive control. After incubation at 37°C overnight, the MICs were taken as the lowest inhibitor concentration at which the bacterial growth was inhibited. The average of three values was calculated and that was the MIC for the test material and bacterial strain. […]

For test [2], the system named is Escherichia coli (ATCC-25922). Description: MIC, micro dilution method. Particulars: ATCC25922, E. coli. The method, then: as §1
The subject of test [3] is Proteus vulgaris (ATCC-29905). Description: MIC, micro dilution method. As to conditions: ATCC29905, P. vulgaris. The method, then: as §1
The subject of test [4] is Pseudomonas aeruginosa (ATCC-27853). The test can be described thus: MIC, micro dilution method. Particulars: ATCC27853. How it is done: as §1
Test [5] concerns Staphylococcus aureus (ATCC-25923). Description: MIC, micro dilution method. As to conditions: ATCC25923, S. aureus. How it is done:
as §1

The test system of test [6] is Group D Streptococci (ATCC-12959). The test can be described thus: MIC, micro dilution method. How it is done: (§2) The disk diffusion method was used for the preliminary antibacterial evaluation of 1-pyridylimidazo[1,5-a]pyridine derivatives. The MIC50 of these derivatives, showing inhibition in the preliminary tests, were further determined by the microtitre plate technique using micro dilution method. In brief, the bacterial strains (S. aureus, P. vulgaris, Group D Streptococci, Bacillus sp., E. coli, P. aeruginosa and S. morganii)) were grown and diluted to 2×10^5 colony-forming units (CFU)/ml in sodium phosphate buffer (SPB) containing 0.03% Luria–Bertani (LB) broth. The synthesized derivatives were dissolved in DMSO and their serial dilution was performed in 50 µL of LB medium in 96-well microtitre plate to achieve the required concentrations (0.1–10 µg/ml) with bacterial inoculums (5×10^4 CFU per well). DMSO was taken as negative control and Ceftriaxone and clotrimazole were taken as positive control. After incubation at 37°C overnight, the MICs were taken as the lowest inhibitor concentration at which the bacterial growth was inhibited. The average of three values was calculated and that was the MIC for the test material and bacterial strain.
(§3) For the agar plate count method, 25 µL aliquots of bacteria at 1×10^5 CFU/ml in SPB containing 0.03% LB broth were incubated with 25 µL of diluted compounds for 2 h at 37°C. The mixtures of bacteria and compounds were serially diluted 10-fold with SPB and plated on LB plates that were incubated at 37°C overnight. Bacterial colonies were enumerated the following day.

Test [7] deals with Serratia morganii (ATCC- 31665). The test can be described thus: MIC, micro dilution method. Particulars: ATCC31665. How it is done:
as §2, §3

For test [8], the system named is Bacillus spp. (ATCC-14593). The test can be described thus: MBC, sub cultivation from MIC plate. As to conditions: ATCC14593, Bacillus sp. The method, then:
(§4) After having determined the MICs, bacterial strains from the wells of the microtitre plate with no visible bacterial growth were removed for serial sub cultivation of 2 µl into another new microtitre plate containing 100 µl of broth per well and further incubated for 24 h. The lowest concentration with no visible growth was defined as MBC [28], indicating 99.5% killing of the original inoculum. The absorbance of each well was measured at a wavelength of 620 nm by Microplate Manager 4.0 (Bio-Rad laboratories) and compared with a blank. Solvent (DMSO) was used as a negative control. Three replicates were done for each compound and experiment was repeated two times.

Test [9] relates to Escherichia coli (ATCC-25922). Description: MBC, sub cultivation from MIC plate. Particulars: ATCC25922, E. coli. The method, then: as §4
Test [10] deals with Group D Streptococci (ATCC-12959). The test can be described thus: MBC, sub cultivation from MIC plate. How it is done: as §4
Test [11] relates to Proteus vulgaris (ATCC-29905). The test can be described thus: MBC, sub cultivation from MIC plate. Particulars: ATCC29905, P. vulgaris. The method, then: as §4
Test [12] concerns Pseudomonas aeruginosa (ATCC-27853). Description: MBC, sub cultivation from MIC plate. How it is done: as §4
Test [13] concerns Serratia morganii (ATCC- 31665). Description: MBC, sub cultivation from MIC plate. The method, then:
as §4

Test [14] has as its system Staphylococcus aureus (ATCC-25923). Description: MBC, sub cultivation from MIC plate. Particulars: ATCC25923, S. aureus. How it is done:
as §4

For test [15], the system named is Bacillus spp. (ATCC-14593). The test can be described thus: MIC, micro dilution method. Particulars: ATCC14593; Bacillus sp. This is another data set of the same source.

`CO/N=C(\C(=O)N[C@@H]1C(=O)N2C(C(=O)O)=C(CSc3nc(=O)c(=O)[nH]n3C)CS[C@H]12)c1csc(N)n1` [Ceftriaxone, reference compound]: the MIC50 in [1] worked out at 0.8 µg/mL (≈ 1.44 µM); in [2], 0.07 µg/mL (≈ 0.126 µM); in test [3], 0.4 µg/mL (≈ 0.721 µM); in test [4] it was 1.5 µg/mL (≈ 2.7 µM); in [5], 3.8 µg/mL (≈ 6.85 µM); in test [6] it was 0.08 µg/mL (≈ 0.144 µM). Further, in test [7], the MIC50 came out at 0.9 µg/mL (≈ 1.62 µM). In addition, the MIC90 in test [2] was found to be 0.12 µg/mL (≈ 0.216 µM); in test [3] it was 0.8 µg/mL (≈ 1.44 µM); in test [4], 3 µg/mL (≈ 5.41 µM); in [5] it was 6 µg/mL (≈ 10.8 µM); in test [6], 1.4 µg/mL (≈ 2.52 µM); in test [7], 1.5 µg/mL (≈ 2.7 µM). Further, the MIC90 in test [15] was 1.6 µg/mL (≈ 2.89 µM). In addition, the MBC in test [8] (read-out: MBC50) is 1.7 µg/mL (≈ 3.07 µM); in test [8] (read-out: MBC90), 3.1 µg/mL (≈ 5.59 µM); in test [9] (read-out: MBC50), 0.14 µg/mL (≈ 0.252 µM); in test [9] (read-out: MBC90), 0.24 µg/mL (≈ 0.433 µM); in test [10] (read-out: MBC50), 1.5 µg/mL (≈ 2.7 µM); in [10] (read-out: MBC90), 1.9 µg/mL (≈ 3.43 µM). Besides, the MBC was 0.9 µg/mL (≈ 1.62 µM) in [11] (read-out: MBC50); 1.2 µg/mL (≈ 2.16 µM) in test [11] (read-out: MBC90); 3.2 µg/mL (≈ 5.77 µM) in test [12] (ATCC27853, read-out: MBC50); 5.5 µg/mL (≈ 9.92 µM) in test [12] (ATCC27853, read-out: MBC90); 1.7 µg/mL (≈ 3.07 µM) in test [13] (ATCC31665, read-out: MBC50); 3.3 µg/mL (≈ 5.95 µM) in test [13] (ATCC31665, read-out: MBC90). For the same compound, the MBC in test [14] (read-out: MBC50) worked out at 7 µg/mL (≈ 12.6 µM); in [14] (read-out: MBC90) it was 10 µg/mL (≈ 18 µM).

As for `Clc1ccccc1C(c1ccccc1)(c1ccccc1)n1ccnc1` [Clotrimazole, 1-[(2-chlorophenyl)(diphenyl)methyl]-1H-imidazole, reference compound], the MIC50 in test [2] turned out to be 45 µg/mL (≈ 130 µM); in test [3], 0.00084 µg/mL (≈ 0.00244 µM); in test [4], 40 µg/mL (≈ 116 µM); in test [5] it was 0.0009 µg/mL (≈ 0.00261 µM). The MIC90 in test [2] came to 85 µg/mL (≈ 246 µM); in test [3], 0.00145 µg/mL (≈ 0.0042 µM); in [4], 75 µg/mL (≈ 217 µM); in [5], 0.0016 µg/mL (≈ 0.00464 µM). For the same compound, the MBC worked out at 75 µg/mL (≈ 217 µM) in test [9] (read-out: MBC50); 144 µg/mL (≈ 418 µM) in test [9] (read-out: MBC90); 0.0014 µg/mL (≈ 0.00406 µM) in test [11] (read-out: MBC50); 0.0032 µg/mL (≈ 0.00928 µM) in [11] (read-out: MBC90); 68 µg/mL (≈ 197 µM) in [12] (ATCC27853, read-out: MBC50); 134 µg/mL (≈ 389 µM) in [12] (ATCC27853, read-out: MBC90). Also, the figures for the MBC in test [14] (read-out: MBC50) and in test [14] (read-out: MBC90) were 0.0014 µg/mL (≈ 0.00406 µM) and 0.003 µg/mL (≈ 0.0087 µM), respectively.

Broadly, the MIC50 is the lowest concentration that inhibits either 50% of growth or 50% of the strains tested, depending on the study. By MIC90 is commonly meant an inhibitory concentration at the 90% level, which refers to growth in some studies and to a panel of isolates in others.
